# How the values were obtained:
# [1] = system: S. epidermidis NCTC11047; format: cell-based; conditions: NCTC11047
# Procedure: (§1) Antibacterial activity of fermentation samples or purified samples was determined by Mueller-Hinton Agar diffusion bioassays using M. luteus ATCC 4698 as the indicator strain. Susceptibility testing (minimum inhibitory concentration [MIC]) for all aerobic organisms, with the exception of S. pneumoniae, was performed following the recommendations of CLSI. Susceptibility testing of S. pneumoniae was performed by two-fold serial dilutions in brain-heart-infusion broth supplemented with 50 μg/ml Ca^2+. Vancomycin was used as a reference antibiotic, and plates were incubated aerobically, with shaking, for 18–20 hr at 37°C with the MIC defined as the lowest concentration of drug that prevented visible growth.
# [2] = system: E. faecium ATCC19579; format: cell-based; conditions: ATCC19579
# Procedure: as §1
# [3] = system: E. faecium 7131121 VRE; format: cell-based; conditions: 7131121 VRE
# Procedure: as §1
# [4] = system: E. faecalis ATCC29212; format: cell-based; conditions: ATCC29212
# Procedure: as §1
# [5] = system: S. aureus SH1000; format: cell-based, Staphylococcus aureus; conditions: SH1000
# Procedure: as §1
# [6] = system: S. pneumoniae BAA-255; format: cell-based, Streptococcus pneumoniae; conditions: BAA-255
# Procedure: as §1
# [7] = system: M. luteus ATCC4698; format: cell-based, Micrococcus luteus; conditions: ATCC4698
# Procedure: as §1
# [8] = system: S. aureus R33 MRSA; format: cell-based, Staphylococcus aureus; conditions: R33
# Procedure: as §1
Structure (SMILES),MIC S. epidermidis NCTC11047 [1],MIC E. faecium ATCC19579 [2],MIC E. faecium 7131121 VRE [3],MIC E. faecalis ATCC29212 [4],MIC S. aureus SH1000 [5],MIC S. pneumoniae BAA-255 [6],MIC M. luteus ATCC4698 [7],MIC S. aureus R33 MRSA [8]
C=C1NC(=O)C2NC(=O)[C@H](CC(C)C)NC(=O)C(NC(=O)[C@@H]3CSC(C)C(NC(=O)[C@H](Cc4ccccc4)NC(=O)C4NC(=O)[C@@H](N)CSC4C)C(=O)N[C@@H](CC(C)C)C(=O)N4CCC[C@H]4C(=O)NCC(=O)NCC(=O)N[C@@H](Cc4c[nH]cn4)C(=O)NCC(=O)N[C@@H](C(C)C)C(=O)N3)C(C)SC[C@H](NC(=O)[C@H](CCC(=O)O)NC1=O)C(=O)N[C@@H]([C@@H](C)CC)C(=O)NC=CSC2C (stereo partly drawn) [G9H],32 µg/mL,64 µg/mL,>64 µg/mL,>64 µg/mL,32 µg/mL,16 µg/mL,< 4 µg/mL,
C=C1NC(=O)C2NC(=O)[C@H](CC(C)C)NC(=O)C(NC(=O)[C@@H]3CSC(C)C(NC(=O)[C@H](Cc4ccccc4)NC(=O)C4NC(=O)[C@@H](N)CSC4C)C(=O)N[C@@H](CC(C)C)C(=O)N4CCC[C@H]4C(=O)NCC(=O)NCC(=O)N[C@@H](CO)C(=O)NCC(=O)N[C@@H](C(C)C)C(=O)N3)C(C)SC[C@H](NC(=O)[C@H](CCC(=O)O)NC1=O)C(=O)N[C@@H]([C@@H](C)CC)C(=O)NC=CSC2C (stereo partly drawn) [G9S],>64 µg/mL,>64 µg/mL,>64 µg/mL,>64 µg/mL,>64 µg/mL,>64 µg/mL,64 µg/mL,"64, >64 μg/ml"
C=C1NC(=O)C2NC(=O)[C@H](CC(C)C)NC(=O)C(NC(=O)[C@@H]3CSC(C)C(NC(=O)[C@H](Cc4ccccc4)NC(=O)C4NC(=O)[C@@H](N)CSC4C)C(=O)N[C@@H](CC(C)C)C(=O)N4CCC[C@H]4C(=O)NCC(=O)NCC(=O)NCC(=O)NCC(=O)N[C@@H](CCSC)C(=O)N3)C(C)SC[C@H](NC(=O)[C@H](CCC(=O)O)NC1=O)C(=O)N[C@@H]([C@@H](C)CC)C(=O)NC=CSC2C (stereo partly drawn) [V11M],,32 µg/mL,64 µg/mL,64 µg/mL,64 µg/mL,32 µg/mL,16 µg/mL,32 µg/mL

# Now from value to molecule:
MIC S. epidermidis NCTC11047 [1],MIC E. faecium ATCC19579 [2],MIC E. faecium 7131121 VRE [3],MIC E. faecalis ATCC29212 [4],MIC S. aureus SH1000 [5],MIC S. pneumoniae BAA-255 [6],MIC M. luteus ATCC4698 [7],MIC S. aureus R33 MRSA [8],Structure (SMILES)
16 µg/mL,64 µg/mL,>64 µg/mL,64 µg/mL,32 µg/mL,4 µg/mL,,16 µg/mL,C=C1NC(=O)C2NC(=O)[C@H](C(C)C)NC(=O)C(NC(=O)[C@@H]3CSC(C)C(NC(=O)[C@H](Cc4ccccc4)NC(=O)C4NC(=O)[C@@H](N)CSC4C)C(=O)N[C@@H](CC(C)C)C(=O)N4CCC[C@H]4C(=O)NCC(=O)NCC(=O)NCC(=O)NCC(=O)N[C@@H](C(C)C)C(=O)N3)C(C)SC[C@H](NC(=O)[C@H](CCC(=O)O)NC1=O)C(=O)N[C@@H]([C@@H](C)CC)C(=O)NC=CSC2C (stereo partly drawn) [L14V]
16 µg/mL,32 µg/mL,64 µg/mL,64 µg/mL,32 µg/mL,2 µg/mL,,16 µg/mL,CC[C@H](C)[C@@H]1NC(=O)[C@@H]2CSC(C)C(NC(=O)[C@@H]3CSC(C)C(NC(=O)[C@H](Cc4ccccc4)NC(=O)C4NC(=O)[C@@H](N)CSC4C)C(=O)N[C@@H](CC(C)C)C(=O)N4CCC[C@H]4C(=O)NCC(=O)NCC(=O)NCC(=O)NCC(=O)N[C@@H](C(C)C)C(=O)N3)C(=O)N[C@@H](CC(C)C)C(=O)NC(C(=O)NCC(=O)N[C@@H](CCC(=O)O)C(=O)N2)C(C)SC=CNC1=O (stereo partly drawn) [S16G]
16 µg/mL,32 µg/mL,32 µg/mL,64 µg/mL,64 µg/mL,,,32 µg/mL,C=C1NC(=O)C2NC(=O)[C@H](CC(C)C)NC(=O)C(NC(=O)[C@@H]3CSC(C)C(NC(=O)[C@H](Cc4ccccc4)NC(=O)C4NC(=O)[C@@H](N)CSC4C)C(=O)N[C@@H](CC(C)C)C(=O)N4CCC[C@H]4C(=O)NCC(=O)NCC(=O)NCC(=O)NCC(=O)N[C@@H](CC(C)C)C(=O)N3)C(C)SC[C@H](NC(=O)[C@H](CCC(=O)O)NC1=O)C(=O)N[C@@H]([C@@H](C)CC)C(=O)NC=CSC2C (stereo partly drawn) [V11L]
